The record followed here is ChEMBL document CHEMBL5252552, “Defined concatenated α6α1β3γ2 GABAA receptor constructs reveal dual action of pyrazoloquinolinone allosteric modulators” (Bioorg Med Chem, 2019).

Assay [1] has as its target T1, Gamma-aminobutyric acid receptor subunit alpha-1/alpha-6/beta-3/gamma-2 (Rattus norvegicus) (UniProt P18508+P30191+P62813+P63079). Kind of assay: Positive allosteric modulation of rat recombinant GABAA gamma2beta3alpha1-beta3alpha6 receptor expressed in Xenopus laevis oocytes assessed as maximal efficacy at -80 mV holding potential at 3 uM in presence of GABA EC1 to 1.5 by two-electrode voltage-clamp assay. In kind it is cell-based. The settings on record: Oocyte, filed as positive allosteric modulator. (In general: Two-electrode voltage clamp is typically applied to oocytes expressing channels or transporters.)

Assay [2] has as its target T2, Gamma-aminobutyric acid receptor subunit alpha-1/beta-3/gamma-2 (Rattus norvegicus) (UniProt P18508+P62813+P63079). The assay can be described thus: Positive allosteric modulation of rat recombinant GABAA alpha1beta3alpha1-gamma2beta3 receptor expressed in Xenopus laevis oocytes assessed as maximal efficacy at -80 mV holding potential at 100 nM in presence of GABA EC1 to 1.5 by two-electrode voltage-clamp assay. The class given is cell-based. The settings on record: Oocyte.

Assay [3] has as its target T3, Gamma-aminobutyric acid receptor subunit alpha-6/beta-3/gamma-2 (Rattus norvegicus) (UniProt P18508+P30191+P63079). The assay can be described thus: Positive allosteric modulation of rat recombinant GABAA alpha6beta3gamma2 receptor expressed in Xenopus laevis oocytes assessed as maximal current at -80 mV holding potential under less potent phase in presence of GABA EC1 to 1.5 by two-electrode voltage-clamp assay relative to control. The settings on record: Oocyte, filed as positive allosteric modulator. The class given is cell-based.

In assay [4] the target is T1, Gamma-aminobutyric acid receptor subunit alpha-1/alpha-6/beta-3/gamma-2 (Rattus norvegicus). Kind of assay: Positive allosteric modulation of rat recombinant GABAA alpha6beta3alpha1-gamma2beta3 receptor expressed in Xenopus laevis oocytes assessed as maximal efficacy at -80 mV holding potential at 10 nM in presence of GABA EC1 to 1.5 by two-electrode voltage-clamp assay. The class given is cell-based. The note with it: Oocyte.

Assay [5] has as its target T3, Gamma-aminobutyric acid receptor subunit alpha-6/beta-3/gamma-2 (Rattus norvegicus). The assay can be described thus: Positive allosteric modulation of rat recombinant GABAA alpha6beta3alpha6-gamma2beta3 receptor expressed in Xenopus laevis oocytes assessed as maximal current at -80 mV holding potential under more potent phase in presence of GABA EC1 to 1.5 by two-electrode voltage-clamp assay relative to control. The class given is cell-based. The note with it: Oocyte, filed as positive allosteric modulator.

Assay [6] has as its target T1, Gamma-aminobutyric acid receptor subunit alpha-1/alpha-6/beta-3/gamma-2 (Rattus norvegicus). Kind of assay: Positive allosteric modulation of rat recombinant GABAA alpha6beta3alpha1-gamma2beta3 receptor expressed in Xenopus laevis oocytes assessed as maximal current at -80 mV holding potential under less potent phase in presence of GABA EC1 to 1.5 by two-electrode voltage-clamp assay relative to control. In kind it is cell-based. The note with it: Oocyte, filed as positive allosteric modulator.

Assay [7] shares this target. The assay can be described thus: Positive allosteric modulation of rat recombinant GABAA gamma2beta3alpha1-beta3alpha6 receptor expressed in Xenopus laevis oocytes assessed as maximal efficacy at -80 mV holding potential at 30 uM in presence of GABA EC1 to 1.5 by two-electrode voltage-clamp assay. In kind it is cell-based. The note with it: Oocyte, filed as positive allosteric modulator.

The target in assay [8] is T3, Gamma-aminobutyric acid receptor subunit alpha-6/beta-3/gamma-2 (Rattus norvegicus). Kind of assay: Positive allosteric modulation of rat recombinant GABAA alpha6beta3gamma2 receptor expressed in Xenopus laevis oocytes assessed as maximal efficacy at -80 mV holding potential at 3 nM in presence of GABA EC1 to 1.5 by two-electrode voltage-clamp assay. In kind it is cell-based. The note with it: Oocyte.

For assay [9], the target named is T1, Gamma-aminobutyric acid receptor subunit alpha-1/alpha-6/beta-3/gamma-2 (Rattus norvegicus). Kind of assay: Positive allosteric modulation of rat recombinant GABAA alpha6beta3alpha1-gamma2beta3 receptor expressed in Xenopus laevis oocytes assessed as maximal efficacy at -80 mV holding potential at 3 uM in presence of GABA EC1 to 1.5 by two-electrode voltage-clamp assay. The class given is cell-based. The settings on record: Oocyte, filed as positive allosteric modulator.

The target is the same in assay [10]. Kind of assay: Positive allosteric modulation of rat recombinant GABAA alpha6beta3alpha1-gamma2beta3 receptor expressed in Xenopus laevis oocytes assessed as maximal efficacy at -80 mV holding potential at 300 nM in presence of GABA EC1 to 1.5 by two-electrode voltage-clamp assay. In kind it is cell-based. The settings on record: Oocyte, filed as positive allosteric modulator.

Assay [11] addresses T3, Gamma-aminobutyric acid receptor subunit alpha-6/beta-3/gamma-2 (Rattus norvegicus). Kind of assay: Positive allosteric modulation of rat recombinant GABAA alpha6beta3gamma2 receptor expressed in Xenopus laevis oocytes assessed as maximal efficacy at -80 mV holding potential at 1 uM in presence of GABA EC1 to 1.5 by two-electrode voltage-clamp assay. In kind it is cell-based. The note with it: Oocyte, filed as positive allosteric modulator.

For assay [12] the target is unchanged. Kind of assay: Positive allosteric modulation of rat recombinant GABAA alpha6beta3alpha6-gamma2beta3 receptor expressed in Xenopus laevis oocytes assessed as maximal efficacy at -80 mV holding potential at 3 nM in presence of GABA EC1 to 1.5 by two-electrode voltage-clamp assay. The class given is cell-based. The note with it: Oocyte.
The target is the same in assay [13]. The assay can be described thus: Positive allosteric modulation of rat recombinant GABAA alpha6beta3alpha6-gamma2beta3 receptor expressed in Xenopus laevis oocytes assessed as maximal efficacy at -80 mV holding potential at 30 uM in presence of GABA EC1 to 1.5 by two-electrode voltage-clamp assay. The note with it: Oocyte, filed as positive allosteric modulator. The class given is cell-based.

The target of assay [14] is T4, Gamma-aminobutyric acid receptor subunit alpha-6/beta-3/gamma-2 (Rattus norvegicus, UniProt P18508+P30191+P63079). The assay can be described thus: Positive allosteric modulation of rat recombinant GABAA alpha6beta3gamma2 receptor expressed in Xenopus laevis oocytes assessed as increase in GABA-induced current amplitude at -80 mV holding potential under more potent phase in presence of GABA EC1 to 1.5 by two-electrode voltage-clamp assay. In kind it is cell-based, Oocyte.

Assay [15] has as its target T2, Gamma-aminobutyric acid receptor subunit alpha-1/beta-3/gamma-2 (Rattus norvegicus). Kind of assay: Positive allosteric modulation of rat recombinant GABAA alpha1beta3gamma2 receptor expressed in Xenopus laevis oocytes assessed as maximal current at -80 mV holding potential under less potent phase in presence of GABA EC1 to 1.5 by two-electrode voltage-clamp assay relative to control. The note with it: Oocyte, filed as positive allosteric modulator. The class given is cell-based.

Assay [16] has as its target T1, Gamma-aminobutyric acid receptor subunit alpha-1/alpha-6/beta-3/gamma-2 (Rattus norvegicus). The assay can be described thus: Positive allosteric modulation of rat recombinant GABAA alpha6beta3alpha1-gamma2beta3 receptor expressed in Xenopus laevis oocytes assessed as maximal efficacy at -80 mV holding potential at 30 nM in presence of GABA EC1 to 1.5 by two-electrode voltage-clamp assay. The settings on record: Oocyte. The class given is cell-based.

In assay [17] the target is T4, Gamma-aminobutyric acid receptor subunit alpha-6/beta-3/gamma-2. The assay can be described thus: Positive allosteric modulation of rat recombinant GABAA alpha6beta3alpha6-gamma2beta3 receptor expressed in Xenopus laevis oocytes assessed as increase in GABA-induced current amplitude at -80 mV holding potential under more potent phase in presence of GABA EC1 to 1.5 by two-electrode voltage-clamp assay. The class given is cell-based, Oocyte.

Assay [18] deals with T3, Gamma-aminobutyric acid receptor subunit alpha-6/beta-3/gamma-2 (Rattus norvegicus). Kind of assay: Positive allosteric modulation of rat recombinant GABAA alpha6beta3alpha6-gamma2beta3 receptor expressed in Xenopus laevis oocytes assessed as maximal efficacy at -80 mV holding potential at 3 uM in presence of GABA EC1 to 1.5 by two-electrode voltage-clamp assay. The settings on record: Oocyte, filed as positive allosteric modulator. In kind it is cell-based.

Assay [19] has the same target. The assay can be described thus: Positive allosteric modulation of rat recombinant GABAA alpha6beta3gamma2 receptor expressed in Xenopus laevis oocytes assessed as maximal current at -80 mV holding potential under more potent phase in presence of GABA EC1 to 1.5 by two-electrode voltage-clamp assay relative to control. The note with it: Oocyte, filed as positive allosteric modulator. The class given is cell-based.

The target in assay [20] is T1, Gamma-aminobutyric acid receptor subunit alpha-1/alpha-6/beta-3/gamma-2 (Rattus norvegicus). The assay can be described thus: Positive allosteric modulation of rat recombinant GABAA alpha6beta3alpha1-gamma2beta3 receptor expressed in Xenopus laevis oocytes assessed as maximal efficacy at -80 mV holding potential at 30 uM in presence of GABA EC1 to 1.5 by two-electrode voltage-clamp assay. In kind it is cell-based. The settings on record: Oocyte, filed as positive allosteric modulator.

Assay [21] has as its target T2, Gamma-aminobutyric acid receptor subunit alpha-1/beta-3/gamma-2 (Rattus norvegicus). The assay can be described thus: Positive allosteric modulation of rat recombinant GABAA alpha1beta3alpha1-gamma2beta3 receptor expressed in Xenopus laevis oocytes assessed as maximal efficacy at -80 mV holding potential at 3 uM in presence of GABA EC1 to 1.5 by two-electrode voltage-clamp assay. The class given is cell-based. The settings on record: Oocyte, filed as positive allosteric modulator.

Assay [22] deals with T3, Gamma-aminobutyric acid receptor subunit alpha-6/beta-3/gamma-2 (Rattus norvegicus). Kind of assay: Positive allosteric modulation of rat recombinant GABAA alpha6beta3alpha6-gamma2beta3 receptor expressed in Xenopus laevis oocytes assessed as maximal current under less potent phase in presence of GABA EC1 to 1.5 by two-electrode voltage-clamp assay relative to control. The settings on record: Oocyte, filed as positive allosteric modulator. The class given is cell-based.

Assay [23] has as its target T2, Gamma-aminobutyric acid receptor subunit alpha-1/beta-3/gamma-2 (Rattus norvegicus). Kind of assay: Positive allosteric modulation of rat recombinant GABAA alpha1beta3gamma2 receptor expressed in Xenopus laevis oocytes assessed as maximal efficacy at -80 mV holding potential at 100 nM in presence of GABA EC1 to 1.5 by two-electrode voltage-clamp assay. The class given is cell-based. The note with it: Oocyte.

Molecules are shown by their SMILES.

T4 sequence (P18508 whole entry): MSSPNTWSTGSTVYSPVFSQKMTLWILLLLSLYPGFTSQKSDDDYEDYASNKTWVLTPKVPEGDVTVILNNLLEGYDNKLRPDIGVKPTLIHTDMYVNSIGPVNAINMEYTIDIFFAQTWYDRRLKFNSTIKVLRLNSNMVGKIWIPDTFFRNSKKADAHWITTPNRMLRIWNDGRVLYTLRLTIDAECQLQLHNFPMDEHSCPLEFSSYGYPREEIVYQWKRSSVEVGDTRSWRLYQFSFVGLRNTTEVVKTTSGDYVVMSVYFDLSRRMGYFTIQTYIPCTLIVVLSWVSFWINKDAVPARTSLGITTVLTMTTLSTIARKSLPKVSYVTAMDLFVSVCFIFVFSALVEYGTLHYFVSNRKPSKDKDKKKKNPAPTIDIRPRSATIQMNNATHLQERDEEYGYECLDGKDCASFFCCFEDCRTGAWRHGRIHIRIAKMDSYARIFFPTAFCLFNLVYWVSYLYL
T4 sequence (P30191 whole entry): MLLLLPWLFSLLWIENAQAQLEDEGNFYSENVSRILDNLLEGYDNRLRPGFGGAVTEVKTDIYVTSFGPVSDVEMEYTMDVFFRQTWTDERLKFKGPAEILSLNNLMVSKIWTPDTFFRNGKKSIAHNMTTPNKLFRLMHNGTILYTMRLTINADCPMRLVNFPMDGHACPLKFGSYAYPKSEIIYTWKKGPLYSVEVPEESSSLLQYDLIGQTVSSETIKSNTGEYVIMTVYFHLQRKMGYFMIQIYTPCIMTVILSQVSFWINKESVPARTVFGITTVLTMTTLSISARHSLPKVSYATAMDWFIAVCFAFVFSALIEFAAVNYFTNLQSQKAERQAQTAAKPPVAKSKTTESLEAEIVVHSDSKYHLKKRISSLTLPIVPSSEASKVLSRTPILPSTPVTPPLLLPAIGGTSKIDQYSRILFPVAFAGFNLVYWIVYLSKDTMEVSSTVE
T4 sequence (P63079 whole entry): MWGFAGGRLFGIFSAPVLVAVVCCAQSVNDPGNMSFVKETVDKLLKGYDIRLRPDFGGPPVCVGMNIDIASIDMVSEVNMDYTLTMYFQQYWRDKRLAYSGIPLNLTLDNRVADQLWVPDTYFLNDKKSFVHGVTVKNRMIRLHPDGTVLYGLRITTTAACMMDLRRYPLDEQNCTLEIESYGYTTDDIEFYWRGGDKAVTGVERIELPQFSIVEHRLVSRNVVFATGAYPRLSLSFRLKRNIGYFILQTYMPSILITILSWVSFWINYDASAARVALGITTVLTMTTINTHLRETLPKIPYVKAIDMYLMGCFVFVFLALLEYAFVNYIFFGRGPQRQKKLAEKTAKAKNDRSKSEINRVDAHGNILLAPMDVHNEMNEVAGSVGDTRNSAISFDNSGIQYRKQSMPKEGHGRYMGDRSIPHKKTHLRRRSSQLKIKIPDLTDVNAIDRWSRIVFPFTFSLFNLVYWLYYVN

What is called EC50 is the concentration at which the effect is half-maximal. With `COc1ccc(-n2nc3c4ccc(Br)cc4[nH]cc-3c2=O)cc1`, the Efficacy in assay [1] is 89%; in assay [2] it was 8%; in [4], 2%; in [7] it was 210%; in assay [8], 23%; in [9] it was 363%. Besides, the Efficacy in [10] is 60%; in assay [11], 185%; in [12], 19%; in assay [13] it was 570%; in [16] it was 8%; in assay [18], 320%. Also, the figures for the Efficacy in assay [20], in [21] and in assay [23] were 838%, 95% and 5%, respectively. The %max was 580% in assay [3]; 82% in assay [5]; 1060% in assay [6]; 132% in [15]; 70% in assay [19]; 657% in [22]. Moreover, the EC50 in [14] was 1 nM; in assay [17], 9 nM.
